Here are results for 73 compounds from PubChem BioAssay AID1996.

Molecules are shown by their SMILES. ≈ marks a conversion by molar mass, not a printed value. Bounds are passed on as bounds.

For the data set the following is noted: buffer; pH 7.4; 200.0 µM.
A word on the kinetic solubility: it is the concentration staying in solution when a stock, usually in DMSO, is diluted into the medium. Regarding `COc1cc(SC)ccc1C(=O)Nc1ncc(C)s1`, the solubility (kinetic) was 1.4 µg/mL (≈ 4.76 µM).

Compound `CCN1CCCC1CNC(=O)c1cc2cc(F)ccc2[nH]1` (stereo not drawn) showed a solubility (kinetic) greater than 43.4 µg/mL.

In turn, `CCS(=O)(=O)c1c(S(=O)(=O)CC)c2ccccn2c1C(N)=O` gave a kinetic solubility greater than 51.7 µg/mL.

For the compound `N/C(=N\OC(=O)CCCc1ccccc1)c1ccccc1`, the solubility (kinetic) was 7.2 µg/mL (≈ 25.5 µM).

`CCOc1cc(N2CCOCC2)c(OCC)cc1NC(=O)c1cc(S(=O)(=O)N2CCOCC2)ccc1F` gave a solubility (kinetic) of 6.5 µg/mL (≈ 12.1 µM).

`CC(CCc1ccccc1)NS(=O)(=O)c1ccccc1F` (stereo not drawn): the kinetic solubility came out at 39 µg/mL (≈ 127 µM).

In turn, `CCOc1ccc(C(=O)NCC(=O)N2CCCCCCC2)cc1` returned a solubility (kinetic) greater than 47.8 µg/mL.

Take `O=C(Cc1ccccc1)Nc1ccccc1C(=O)N1CCCCC1`: the solubility (kinetic) was greater than 48.4 µg/mL.

`CC(C)C(=O)N1CC(=O)Nc2ccc(F)cc2C1c1ccc(F)cc1` (stereo not drawn) registered a kinetic solubility greater than 51.7 µg/mL.

In the case of `COc1ccc(-c2nc(-c3ccncc3)no2)cc1`, the kinetic solubility was 1.1 µg/mL (≈ 4.34 µM).

On to `CC1(C)OC(C)(C)/C(=C\c2ccccc2[N+](=O)[O-])C1=O`, for which the kinetic solubility stood at 27.7 µg/mL (≈ 101 µM).

For `Cc1c(NC(=O)C(C)Oc2cccc(F)c2)c(=O)n(-c2ccccc2)n1C` (stereo not drawn), the solubility (kinetic) is greater than 55.4 µg/mL.

In turn, `COc1ccc(NC(=O)COC(=O)CCc2ccc(S(=O)(=O)N3CCOCC3)cc2)c(OC)c1` yielded a solubility (kinetic) of 11 µg/mL (≈ 22.3 µM).

Take `COC(=O)C/C=N/N=C1/NC(=O)/C(=C/C(=O)O)S1`: the kinetic solubility was greater than 40.7 µg/mL.

Compound `COc1ccc(NC(=O)CSc2nnc(-c3cccnc3)n2C)cc1` came in with a kinetic solubility greater than 53.3 µg/mL.

`Cc1ccc(COc2ccc(C)nc2[N+](=O)[O-])cc1` yielded a kinetic solubility of 1.2 µg/mL (≈ 4.65 µM).

For `COc1ccccc1CNC(=S)NCc1ccc(Cl)cc1`, the kinetic solubility turned out to be 11.8 µg/mL (≈ 36.8 µM).

As to `CCOc1cc(NC(=O)CCl)c(OCC)cc1NC(=O)CCl`, the solubility (kinetic) worked out at 6.8 µg/mL (≈ 19.5 µM).

Take `O=C(Cc1ccc(Cl)cc1)NCC(=O)N1CCCCCC1`: the kinetic solubility is greater than 46.3 µg/mL.

Take `Cc1ccc(SCC(=O)OCC(=O)NC2CCCCCC2)cc1`: the solubility (kinetic) was greater than 50.3 µg/mL.

As to `O=C(COC(=O)c1cccc([N+](=O)[O-])c1)NCc1cccs1`, the kinetic solubility is 36 µg/mL (≈ 112 µM).

In the case of `O=C1NC2=C(C(=O)CCC2)C(c2ccccc2Cl)N1` (stereo not drawn), the solubility (kinetic) was determined as 39.1 µg/mL (≈ 141 µM).

`COc1ccc([N+](=O)[O-])c(OC)c1C(=O)NC(=O)Nc1c(C)cccc1C` displayed a kinetic solubility of 0.9 µg/mL (≈ 2.41 µM).

As to `COc1ccc(C(=O)O/N=C(\N)c2ccccn2)cc1[N+](=O)[O-]`, the solubility (kinetic) stood at 2.6 µg/mL (≈ 8.22 µM).

With `Cc1ccc(NC(=O)CCC(=O)c2cccs2)nc1`, the solubility (kinetic) came to 34.6 µg/mL (≈ 126 µM).

The compound `CN(Cc1ccc(F)cc1)C(=O)CNC(=O)C1CCCCC1` registered a solubility (kinetic) greater than 46 µg/mL.

In turn, `COc1ccc(C(=O)C[N+]2(C)CCOCC2)cc1.[I-]` gave a solubility (kinetic) greater than 37.5 µg/mL.

The compound `Cc1cc(C)nc(/N=C(\N)Nc2cccc(OCc3ccccc3)c2)n1` came in with a solubility (kinetic) greater than 52.1 µg/mL.

The compound `N#Cc1c(-c2ccccc2Cl)c2c([nH]c1=O)-c1ccccc1OC2` returned a solubility (kinetic) of 11.6 µg/mL (≈ 34.7 µM).

As for `CC(C)CC1CCCCC1OC(=O)CN1CCCCC1` (stereo not drawn), the solubility (kinetic) turned out to be 3.7 µg/mL (≈ 13.1 µM).

Compound `CC(=O)Nc1cccc(-c2cc(-c3c(Cl)cccc3Cl)no2)c1` registered a kinetic solubility of 3.7 µg/mL (≈ 10.7 µM).

For `O=C1S/C(=C\c2cccs2)C(=O)N1c1ccc(O)cc1`, the kinetic solubility is less than 0.6 µg/mL.

As to `Fc1ccc(NC2=NCCCCC2)cc1`, the kinetic solubility was greater than 30.9 µg/mL.

As for `COC(=O)CN1C(=O)N/C(=C/c2ccc(OC)c(C)c2OC)C1=O`, the solubility (kinetic) was determined as 4 µg/mL (≈ 12 µM).

For `COc1nc(-c2ccc(Cl)cc2Cl)nc2ccccc12`, the kinetic solubility is less than 0.3 µg/mL.

In turn, `O=C(Nc1ccccc1)c1ccccc1NC(=O)c1ccccc1[N+](=O)[O-]` returned a solubility (kinetic) of 7.5 µg/mL (≈ 20.8 µM).

For `CCOc1ccc2[nH]c3c(NCCC(C)C)ncnc3c2c1`, the solubility (kinetic) is 0.6 µg/mL (≈ 2.01 µM).

`CC1CC(C)CN(C(=O)c2ccc3nc[nH]c3c2)C1` (stereo not drawn): the solubility (kinetic) was greater than 38.6 µg/mL.

Compound `N#Cc1ccccc1OCC(=O)OCC(=O)NC1CCS(=O)(=O)C1` (stereo not drawn) showed a solubility (kinetic) greater than 52.9 µg/mL.

Turning to `Cc1ccc(C)n1CCN1CCN(S(=O)(=O)c2ccc(F)cc2F)CC1`, the kinetic solubility is 26.1 µg/mL (≈ 68.1 µM).

`Cc1cc2ncn(C(=O)c3ccc(F)cc3)c2cc1C` came in with a kinetic solubility of 21.6 µg/mL (≈ 80.5 µM).

In the case of `CC(=O)c1ccc(-n2c(CCC(=O)O)ccc2-c2ccccc2)cc1`, the solubility (kinetic) turned out to be 41.5 µg/mL (≈ 124 µM).

`COC(=O)CNC(=O)C12CC3CC(C1)CC(c1ccc(C)cc1)(C3)C2` gave a solubility (kinetic) of 6.5 µg/mL (≈ 19 µM).

`CCOc1ccccc1N1CC(C(=O)N(CC)C2CCS(=O)(=O)C2)CC1=O` (stereo not drawn) gave a kinetic solubility greater than 59.2 µg/mL.

For the compound `O=C(Nc1ccccc1)OCCOc1ccccc1Br`, the solubility (kinetic) is less than 0.7 µg/mL.

`O=C(CCCC(=O)NC1CCCCC1)Nc1ccc([N+](=O)[O-])cc1` returned a kinetic solubility of 12 µg/mL (≈ 36 µM).

As for `COc1ccc(NC(=O)c2cc(-c3ccco3)nc3ccccc23)cc1`, the kinetic solubility was less than 0.4 µg/mL.

Compound `CC(=O)c1ccc(-n2cc(C#N)c(=O)[nH]c2=O)cc1` registered a kinetic solubility of 34.7 µg/mL (≈ 136 µM).

`Cc1cc(=O)oc(C)c1C(=O)Nc1ccc(N(C)C)cc1` yielded a kinetic solubility greater than 42.9 µg/mL.

`CCOC(=O)c1ccc(S(=O)(=O)NC2CC2)cc1` came in with a kinetic solubility of 32.4 µg/mL (≈ 120 µM).

In turn, `Fc1cccc2sc(N3CCCC3)nc12` returned a kinetic solubility of 17.4 µg/mL (≈ 78.3 µM).

Consider `CC(=O)c1cccc(S(=O)(=O)Nc2c(C)nn(C)c2C)c1`, for which the kinetic solubility was greater than 46.1 µg/mL.

The compound `CCOC(=O)/C=C1\SCC(=O)N1CC(=O)Nc1cc(S(=O)(=O)N(C)C)ccc1C` showed a kinetic solubility of 26.2 µg/mL (≈ 59.3 µM).

Compound `C/C(=C/C#N)Nc1ccc(C)cc1` yielded a kinetic solubility greater than 25.8 µg/mL.

In turn, `CCS(=O)(=O)c1ncc(Cl)c(C(=O)Nc2ccccc2OC)n1` registered a kinetic solubility of 0.3 µg/mL (≈ 0.843 µM).

Take `CCc1nc2sc3c(c2c(=O)n1CCO)CCC3`: the kinetic solubility was greater than 39.7 µg/mL.

`O=C(c1ccc(F)cc1Cl)N1CCC2(CC1)OCCO2` gave a solubility (kinetic) greater than 45 µg/mL.

Take `COc1cccc(C(=O)NCC2(c3ccccc3)CCCC2)c1`: the solubility (kinetic) worked out at 28.4 µg/mL (≈ 91.8 µM).

For `Cc1nc(N2CCOCC2)[nH]c(=O)c1C(O)C(Cl)(Cl)Cl` (stereo not drawn), the solubility (kinetic) came out at 47.1 µg/mL (≈ 137 µM).

Take `COCCCNC(=O)Cc1ccc(-n2c(C)nc3cccnc32)cc1`: the solubility (kinetic) was greater than 50.8 µg/mL.

Consider `Clc1nssc1=Nc1ccc(Br)cc1`, for which the solubility (kinetic) worked out at 1.4 µg/mL (≈ 4.55 µM).

On to `Cc1cc(C(=O)NCCc2ccc(Cl)cc2)no1`, for which the kinetic solubility was 18.6 µg/mL (≈ 70.3 µM).

`COc1ccc(S(=O)(=O)N(C)CC(=O)N2CCCC2)cc1OC`: the kinetic solubility is greater than 51.4 µg/mL.

`Cc1cc(NC(=O)CSc2nc3cc(C)c(C)cc3cc2C)no1`: the kinetic solubility is less than 0.2 µg/mL.

`CCCOC(=O)Cn1cnc2scc(-c3ccc(OC)cc3)c2c1=O`: the solubility (kinetic) is 27.7 µg/mL (≈ 77.3 µM).

`COc1c(S(=O)(=O)N2CCN(C)CC2)ccc(Cl)c1Cl` showed a kinetic solubility of 45.6 µg/mL (≈ 134 µM).

Take `Cc1ccccc1CNC(=O)c1ccc2ccccc2n1`: the solubility (kinetic) was 9.2 µg/mL (≈ 33.3 µM).

`O=C(O)c1cc(-c2ccc3ccccc3c2)nc2ccc(F)cc12`: the solubility (kinetic) was greater than 47.6 µg/mL.

For the compound `CC1(C)C2CCC1(C)C(NC(=O)/C=C/c1ccccc1)C2` (stereo not drawn), the kinetic solubility came out at 8.9 µg/mL (≈ 31.4 µM).

Turning to `S=C(NCC1(c2ccccc2)CCCC1)Nc1ccccc1`, the kinetic solubility was 0.8 µg/mL (≈ 2.58 µM).

`CCS(=O)(=O)Nc1cc2c3c(c1)CCC(=O)N3CCC2` showed a kinetic solubility greater than 44.2 µg/mL.

In the case of `Cn1cnnc1SCC(=O)Nc1ccccc1F`, the kinetic solubility is greater than 39.9 µg/mL.

Turning to `Cc1ccc(C(CC(=O)NCCCN(C)C)c2ccc(OC(C)C)cc2)cc1` (stereo not drawn), the kinetic solubility amounted to 52.9 µg/mL (≈ 138 µM).
